We go through 9 molecules from patent US9447135B2, “Semi-synthetic mithramycin derivatives with anti-cancer activity” (UNIVERSITY OF KENTUCKY RESEARCH FOUNDATION, priority 2012, dated 2016).

For assay [1], the system named is TC32 Ewing sarcoma cell line. Nature of the assay: 72 hour cytotoxicity, TC32. It is filed as cell-based. The following applies: Ewing sarcoma cell line TC32, 72 hour; read-out: IC50 (nM) TC 32. The method, then:
(§1) The cytotoxicity of a subgroup of the MTM SA analogues was tested against various Ewing sarcoma cell lines and non-Ewing sarcoma cell lines over a 72 hour period. Each analogue was checked individually with a range of concentrations to determine the IC50 of the molecule in actively growing cell cultures.

The subject of assay [2] is 5838 Ewing sarcoma cell line. Nature of the assay: 72 hour cytotoxicity, 5838. The format is cell-based. The following applies: Ewing sarcoma cell line 5838, 72 hour. The method, then:
as §1

In assay [3] the test system is SK-ES-1 Ewing sarcoma cell line. Nature of the assay: 72 hour cytotoxicity, SK-ES-1. The following applies: Ewing sarcoma cell line SK-ES-1, 72 hour. It is filed as cell-based. The method, then:
as §1

Assay [4] concerns TC71 Ewing sarcoma cell line. Nature of the assay: 72 hour cytotoxicity, TC71. To be noted: Ewing sarcoma cell line TC71, 72 hour. The format is cell-based. The method, then: as §1
The test system of assay [5] is ES-2 Ewing sarcoma cell line. Nature of the assay: 72 hour cytotoxicity, ES-2. The format is cell-based. The following applies: Ewing sarcoma cell line ES-2, 72 hour. The method, then: as §1
Assay [6] concerns ES-3 Ewing sarcoma cell line. Nature of the assay: 72 hour cytotoxicity, ES-3. It is filed as cell-based. To be noted: Ewing sarcoma cell line ES-3, 72 hour. The method, then: as §1
The subject of assay [7] is ES-4 Ewing sarcoma cell line. Nature of the assay: 72 hour cytotoxicity, ES-4. It is filed as cell-based. The following applies: Ewing sarcoma cell line ES-4, 72 hour. The method, then: as §1
In assay [8] the test system is ES-7 Ewing sarcoma cell line. Nature of the assay: 72 hour cytotoxicity, ES-7. It is filed as cell-based. To be noted: Ewing sarcoma cell line ES-7, 72 hour. The method, then: as §1
Assay [9] relates to ES-8 Ewing sarcoma cell line. Nature of the assay: 72 hour cytotoxicity, ES-8. To be noted: Ewing sarcoma cell line ES-8, 72 hour. The format is cell-based. The method, then: as §1
The subject of assay [10] is A549, human non-small cell lung cancer cells. Nature of the assay: 72 hour cytotoxicity, A549 (resazurin). The format is cell-based. To be noted: non-Ewing sarcoma cell line A549, 72 hour. The method, then: The cytotoxic effects of the side chain modifications of SA were investigated in order to determine whether the modification were beneficial to the drug structure. All cytotoxicity assays were performed with A549, human non-small cell lung cancer cells. A549 cells were cultured as specified from ATCC at 37° C., 5% CO2. The cells were added to a 96 well plate (5,000 cells/well) and permitted to attach for 24 h. After 24 h culture media were replaced with the side chain modified MTM SA derivative containing media at differing concentrations. The cells were incubated with the drug containing media for 72 hrs total (n=8). Cell viability was determined using a resazurin assay that signifies mitochondrial metabolic activity in living cells. […] of a 1 mM resazurin solution in PBS was added to the control and analogue-treated cells at the end of the treatment period. Cell viability was determined three hours later by reading the fluorescence at 560 nm (Ex)/590 nm (Em). The fluorescence signals were quantified using a Spectramax M5 plate reader (Molecular Devices) equipped with a SoftMaxPro software. Cytotoxicity was determined by calculating the half maximal inhibitory concentration (IC50) of each sample.
as §1
Background: The colour change of resazurin is a common sign of viable cells or microbes.

Assay [11] has as its system U118 non-Ewing sarcoma cell line. Nature of the assay: 72 hour cytotoxicity, U118. It is filed as cell-based. To be noted: non-Ewing sarcoma cell line U118, 72 hour. The method, then:
as §1

Assay [12] concerns several cancer cell lines. The following applies: cited from earlier work.
Assay [13] has as its system A673 Ewing sarcoma cell line. Nature of the assay: 72 hour cytotoxicity, A673. The following applies: Ewing sarcoma cell line A673, 72 hour. The format is cell-based. The method, then:
as §1

Assay [14] has as its system RDES Ewing sarcoma cell line. Nature of the assay: 72 hour cytotoxicity, RDES. The format is cell-based. The method, then: as §1
The nature of assay [15]: 72 hour cytotoxicity, RH30. It is filed as cell-based. To be noted: Ewing sarcoma cell line RH30, 72 hour; read-out: IC50 (nM) RH 30. The method, then: as §1
The subject of assay [16] is VCaP non-Ewing sarcoma cell line. Nature of the assay: 72 hour cytotoxicity, VCaP. The format is cell-based. The method, then:
as §1

Assay [17] relates to HCT-116 non-Ewing sarcoma cell line. Nature of the assay: 72 hour cytotoxicity, HCT-116. The format is cell-based. To be noted: non-Ewing sarcoma cell line HCT-116, 72 hour. The method, then:
as §1

Assay [18] deals with Ewing sarcoma (TC32, 5838, SKES1) and non-Ewing (A459 (lung) and PC3 (prostate)) cancer cell lines. Nature of the assay: Selectivity assay, Ewing sarcoma versus non-Ewing cell panel (72 hr cytotoxicity).

Structures are written as SMILES.

Turning to `CO[C@H](C(=O)NCCc1c[nH]c2ccc(O)cc12)[C@@H]1Cc2cc3cc(OC4CC(OC5CC(O)C(O)C(C)O5)C(O)C(C)O4)c(C)c(O)c3c(O)c2C(=O)[C@H]1OC1CC(OC2CC(OC3CC(C)(O)C(O)C(C)O3)C(O)C(C)O2)C(O)C(C)O1` (stereo partly drawn) [MTMSA-Serotonin], the IC50 was 667 nM in [1]; 690 nM in [2]; 612 nM in assay [3]; 671 nM in assay [4]; 749 nM in assay [5]; 658 nM in assay [6]. In addition, the IC50 is 610 nM in [7]; 753 nM in assay [8]; 676 nM in assay [9]; above 3000 nM in assay [10]; 916 nM in [11].
Take `COc1ccc2[nH]cc(CCNC(=O)[C@@H](OC)[C@@H]3Cc4cc5cc(OC6CC(OC7CC(O)C(O)C(C)O7)C(O)C(C)O6)c(C)c(O)c5c(O)c4C(=O)[C@H]3OC3CC(OC4CC(OC5CC(C)(O)C(O)C(C)O5)C(O)C(C)O4)C(O)C(C)O3)c2c1` (stereo partly drawn) [MTMSA-5-OMe Trypamine]: the IC50 is 73 nM in assay [1]; 78 nM in assay [2]; 63 nM in assay [3]; 58 nM in assay [4]; 84 nM in assay [5]; 157 nM in assay [6]. Further, the IC50 came to 63 nM in assay [7]; 79 nM in [8]; 75 nM in [9]; 84 nM in [10]; 58 nM in [11].
Consider `COC(=O)[C@H](Cc1ccc(O)cc1)NC(=O)[C@@H](OC)[C@@H]1Cc2cc3cc(OC4CC(OC5CC(O)C(O)C(C)O5)C(O)C(C)O4)c(C)c(O)c3c(O)c2C(=O)[C@H]1OC1CC(OC2CC(OC3CC(C)(O)C(O)C(C)O3)C(O)C(C)O2)C(O)C(C)O1` (stereo partly drawn) [MTMSA-Tyr], for which the IC50 worked out at 133 nM in assay [1]; 170 nM in [2]; 306 nM in [3]; 130 nM in assay [4]; 263 nM in assay [5]; 266 nM in assay [6]. Further, the IC50 in assay [7] is 138 nM; in [8], 189 nM; in assay [9] it was 171 nM; in assay [10] it was 867 nM; in assay [11], 231 nM.
With `COC(C(=O)O)[C@@H]1Cc2cc3cc(OC4CC(OC5CC(O)C(O)C(C)O5)C(O)C(C)O4)c(C)c(O)c3c(O)c2C(=O)[C@H]1OC1CC(OC2CC(OC3CC(C)(O)C(O)C(C)O3)C(O)C(C)O2)C(O)C(C)O1` (stereo partly drawn) [MTM SA, mithramycin side chain carboxylic acid], the “activity compared to the parent MTM” value in assay [12] is “significantly decreased activity”.
For the molecule `COC(=O)[C@@H](OC)[C@@H]1Cc2cc3cc(OC4CC(OC5CC(O)C(O)C(C)O5)C(O)C(C)O4)c(C)c(O)c3c(O)c2C(=O)[C@H]1OC1CC(OC2CC(OC3CC(C)(O)C(O)C(C)O3)C(O)C(C)O2)C(O)C(C)O1` (stereo partly drawn) [MTMSA-Me ester], the IC50 in [1] was determined as 67 nM; in [2], 193 nM; in assay [3] it was 86 nM; in assay [4], 46 nM; in assay [5] it was 76 nM; in [6], 90 nM. The 50% inhibitory concentration (IC50) in assay [7] was 41 nM; in assay [8] it was 51 nM; in [9], 47 nM; in assay [10], 99 nM; in assay [11], 38 nM.
As for `COC(=O)[C@H](Cc1ccccc1)NC(=O)[C@@H](OC)[C@@H]1Cc2cc3cc(O[C@H]4C[C@@H](O[C@H]5C[C@@H](O)[C@H](O)[C@@H](C)O5)[C@H](O)[C@@H](C)O4)c(C)c(O)c3c(O)c2C(=O)[C@H]1O[C@H]1C[C@@H](O[C@H]2C[C@@H](O[C@H]3C[C@](C)(O)[C@H](O)[C@@H](C)O3)[C@H](O)[C@@H](C)O2)[C@H](O)[C@@H](C)O1` [MTMSA-Phe], the concentration for half-maximal inhibition (IC50) in [13] was determined as 109 nM; in assay [14], 94 nM; in [15], 136 nM; in assay [5], 182 nM; in [6], 363 nM; in [7] it was 35 nM. The IC50 in assay [8] amounted to 61 nM; in assay [9] it was 59 nM; in [10], 398 nM; in [16], 32 nM; in [17], 21 nM. Moreover, in [18] (compared with other MTM SA derivatives, FIG. 10), the “potency and selectivity in killing of Ewing sarcoma cells” value was “even more potent and highly selective in killing of Ewing sarcoma cells than other MTM SA derivatives”.
Consider `COC(=O)[C@H](C)NC(=O)[C@@H](OC)[C@@H]1Cc2cc3cc(OC4CC(OC5CC(O)C(O)C(C)O5)C(O)C(C)O4)c(C)c(O)c3c(O)c2C(=O)[C@H]1OC1CC(OC2CC(OC3CC(C)(O)C(O)C(C)O3)C(O)C(C)O2)C(O)C(C)O1` (stereo partly drawn) [MTM SA-Ala], for which the “selectivity against Ewing sarcoma cells relative to non-Ewing cells” value in assay [18] (FIG. 9, right panel) worked out at 9 fold. In addition, the “less potent than MTM” value in assay [18] (against Ewing sarcoma cells, relative to MTM) is on record as “about 200 fold”. In addition, the “higher selectivity than MTM against Ewing sarcoma relative to non-Ewing cell lines” value in [18] (relative to MTM, 72 hr) is listed as 3 fold.
Regarding `CO[C@H](C(=O)NCCc1c[nH]c2ccccc12)[C@@H]1Cc2cc3cc(OC4CC(OC5CC(O)C(O)C(C)O5)C(O)C(C)O4)c(C)c(O)c3c(O)c2C(=O)[C@H]1OC1CC(OC2CC(OC3CC(C)(O)C(O)C(C)O3)C(O)C(C)O2)C(O)C(C)O1` (stereo partly drawn) [MTMSA-Tryptamine], the IC50 in assay [1] came to 110 nM; in assay [2], 439 nM; in assay [3], 226 nM; in [4], 78 nM; in assay [5], 155 nM; in assay [6], 216 nM. The IC50 is 90 nM in assay [7]; 86 nM in assay [8]; 97 nM in assay [9]; 196 nM in assay [10]; 76 nM in assay [11].
With `CO[C@H](C(=O)C(C)=O)[C@@H]1Cc2cc3cc(OC4C[C@@H](OC5C[C@@H](O)[C@H](O)C(C)O5)[C@H](O)C(C)O4)c(C)c(O)c3c(O)c2C(=O)[C@H]1OC1C[C@@H](OC2C[C@@H](OC3C[C@](C)(O)[C@H](O)C(C)O3)[C@@H](O)C(C)O2)[C@H](O)C(C)O1` (stereo partly drawn) [MTM SDK], in assay [12], the “activity compared to the parent MTM” value is on record as “increased activity”.

One may read the IC50 as the point on the concentration scale where inhibition reaches its midpoint.
